# Measured values from patent US20090036450A1, “PYRAZOLE COMPOUNDS AND USE THEREOF” (JAPAN TOBACCO, INC., priority 2006, published 2009).
# pIC50: −log10 of the molar value.
# Molecular target: T1, human liver glycogen phosphorylase (Homo sapiens, UniProt P06737)
# T1 construct: made in house; host or cells: Sf9 insect cells (suspension of disrupted cells, diluted in BES buffer, not purified)
# T1 sequence (P06737 1-847): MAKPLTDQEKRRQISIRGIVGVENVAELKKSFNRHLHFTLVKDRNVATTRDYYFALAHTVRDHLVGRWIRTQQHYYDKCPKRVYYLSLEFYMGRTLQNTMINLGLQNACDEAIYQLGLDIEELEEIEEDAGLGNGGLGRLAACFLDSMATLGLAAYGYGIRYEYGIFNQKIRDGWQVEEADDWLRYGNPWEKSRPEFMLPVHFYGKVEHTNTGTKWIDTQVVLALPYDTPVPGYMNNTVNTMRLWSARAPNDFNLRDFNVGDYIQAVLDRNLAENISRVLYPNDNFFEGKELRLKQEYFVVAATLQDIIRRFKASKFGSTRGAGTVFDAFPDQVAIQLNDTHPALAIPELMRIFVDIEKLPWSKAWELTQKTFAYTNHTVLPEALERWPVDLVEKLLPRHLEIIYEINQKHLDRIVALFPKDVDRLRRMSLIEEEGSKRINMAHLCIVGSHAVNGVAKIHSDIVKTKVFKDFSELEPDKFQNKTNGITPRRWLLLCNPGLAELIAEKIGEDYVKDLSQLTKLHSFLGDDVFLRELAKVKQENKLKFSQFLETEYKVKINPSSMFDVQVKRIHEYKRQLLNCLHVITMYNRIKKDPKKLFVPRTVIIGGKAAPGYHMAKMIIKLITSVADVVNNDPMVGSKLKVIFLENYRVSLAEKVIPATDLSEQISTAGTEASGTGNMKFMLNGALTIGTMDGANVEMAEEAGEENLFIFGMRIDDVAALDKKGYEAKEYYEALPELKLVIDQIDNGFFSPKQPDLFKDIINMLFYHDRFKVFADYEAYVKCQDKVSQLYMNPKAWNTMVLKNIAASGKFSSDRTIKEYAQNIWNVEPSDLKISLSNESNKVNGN
# Assay: Liver glycogen phosphorylase activity, forward reaction system (NADPH detection at 340 nm)
# Assay type: biochemical
# Conditions: enzyme inhibitory activity against recombinant human liver glycogen phosphorylase (Sf9 cell lysate), room temperature, 75 minutes
# Experimental: The glycogen phosphorylase activity was determined by a method using a forward reaction system.
# The following method was used to determine the glycogen phosphorylase activity using a forward reaction system. Glucose-1-phosphate generated from glycogen by glycogen phosphorylase was converted to glucono-δ-lactone-6-phosphate by transphosphorylation and dehydrogenation reactions using phosphoglucomutase and glucose-6-phosphate dehydrogenase (G6PDH). At this time, NADPH generated from NADP in the dehydrogenation reaction by G6PDH was detected.
# An enzyme solution of human liver glycogen phosphorylase was obtained by diluting with 100 mmol/L BES buffer (pH 6.8, containing 2 mmol/L EDTA) a suspension disrupted Sf9 cells in which a recombinant human liver glycogen phosphorylase was forcibly expressed. Phosphate buffer (16 mmol/L KH2PO4, containing 24 mmol/L Na2HPO4) was used as a substrate solution. A mixture of 8 U/mL phosphoglucomutase and 60 U/mL G6PDH was prepared with BES buffer. A reaction buffer (1.4 mmol/L NADP, 30 mmol/L MgCl2, 8 μmol/L glucose-1,6-diphosphate, 8 mg/mL glycogen, 40 mmol/L BES, containing 0.8 mmol/L EDTA) and a glucose solution (75 mmol/L glucose and 100 mmol/L BES, containing 2 mmol/L EDTA) were prepared. A test substance was dissolved in 1% DMSO aqueous solution.
# To a mixture of the glucose solution (20 μL), the substrate solution (20 μL), the reaction buffer (100 μL), and the test substance (20 μL), the recombinant human liver glycogen phosphorylase solution (20 μL), and a mixture (20 μL) of phosphoglucomutase and G6PDH were added to initiate an enzymatic reaction. To a control, 1% DMSO aqueous solution was added instead of the test substance. A solution to which the substrate was not added was used as a blank. After initiation of the reaction, absorbance at 340 nm was measured immediately. The reaction was performed at room temperature for 75 minutes, and then absorbance at 340 nm was measured again. The enzyme activity was obtained by deducting the change in absorbance of the blank for 75 minutes from the change in absorbance over 75 minutes. The inhibition rate (%) of the test substance was calculated by “(1−(enzyme activity of test substance)/(enzyme activity of control))×100”.
# “IC50” represents an enzyme inhibitory activity against human liver glycogen phosphorylase.
row,SMILES,pIC50
1,"Cc1onc(-c2ccc(S(C)(=O)=O)cc2)c1CNC(=O)c1cc(NC(=O)c2cc(F)c(F)cc2Cl)[nH]n1 [Example 1-16, 5-(2-chloro-4,5-difluoro-benzoylamino)-1H-pyrazole-3-carboxylic acid [3-(4-methanesulfonyl-phenyl)-5-methylisoxazol-4-ylmethyl]-amide]",> 7.00
2,"Cc1nc(C2CCCCC2)c(CNC(=O)c2cc(NC(=O)c3cc(F)c(F)cc3Cl)[nH]n2)o1 [Example 1-38, 5-(2-chloro-4,5-difluoro-benzoylamino)-1H-pyrazole-3-carboxylic acid (4-cyclohexyl-2-methyl-oxazol-5-ylmethyl)-amide]",> 7.00
3,"Cc1nc(COC(=O)c2cccs2)c(CNC(=O)c2cc(NC(=O)c3cc(F)c(F)cc3Cl)[nH]n2)o1 [Example 3-22, 5-(2-chloro-4,5-difluoro-benzoylamino)-1H-pyrazole-3-carboxylic acid [2-methyl-4-(thiophene-2-carbonyloxymethyl)-oxazol-5-ylmethyl]-amide]",> 7.00
4,"Cc1cc(-c2nnsc2CNC(=O)c2cc(NC(=O)c3cc(F)c(F)cc3Cl)[nH]n2)c(C)o1 [Example 1-84, 5-(2-chloro-4,5-difluoro-benzoylamino)-1H-pyrazole-3-carboxylic acid [4-(2,5-dimethyl-furan-3-yl)-[1,2,3]thiadiazol-5-ylmethyl]-amide]",> 7.00
5,"CCOC(=O)c1[nH]c(CNC(=O)c2cc(NC(=O)c3cc(F)c(F)cc3Cl)[nH]n2)nc1C [Example 1-13, 5-(2-chloro-4,5-difluoro-benzoylamino)-1H-pyrazole-3-carboxylic acid (5-ethoxycarbonyl-4-methyl-1H-imidazol-2-ylmethyl)-amide]",> 7.00
6,"CCOC(=O)c1nc(C)oc1CNC(=O)c1cc(NC(=O)c2cc(F)c(F)cc2C)[nH]n1 [Example 2-1, 5-(4,5-difluoro-2-methyl-benzoylamino)-1H-pyrazole-3-carboxylic acid (4-ethoxycarbonyl-2-methyl-oxazol-5-ylmethyl)-amide]",> 7.00
7,"Cc1nc(COCC(=O)O)oc1CNC(=O)c1cc(NC(=O)c2cc(F)c(F)cc2Cl)[nH]n1 [Example 3-7, 5-(2-chloro-4,5-difluoro-benzoylamino)-1H-pyrazole-3-carboxylic acid (2-carboxymethoxymethyl-4-methyl-oxazol-5-ylmethyl)-amide]",> 7.00
8,"CSCCc1oc(C)nc1CNC(=O)c1cc(NC(=O)c2cc(F)c(F)cc2Cl)[nH]n1 [Example 1-24, 5-(2-chloro-4,5-difluoro-benzoylamino)-1H-pyrazole-3-carboxylic acid [2-methyl-5-(2-methylsulfanyl-ethyl)-oxazol-4-ylmethyl]-amide]",> 7.00
9,"Cc1onc(-c2ccc(N(C)C)cc2)c1CNC(=O)c1cc(NC(=O)c2cc(F)c(F)cc2Cl)[nH]n1 [Example 1-15, 5-(2-chloro-4,5-difluoro-benzoylamino)-1H-pyrazole-3-carboxylic acid [3-(4-dimethylamino-phenyl)-5-methylisoxazol-4-ylmethyl]-amide]",> 7.00
10,"Cc1ccc(Cn2nnc(CNC(=O)c3cc(NC(=O)c4cc(F)c(F)cc4Cl)[nH]n3)c2C)cc1 [Example 1-64, 5-(2-chloro-4,5-difluoro-benzoylamino)-1H-pyrazole-3-carboxylic acid [5-methyl-1-(4-methyl-benzyl)-1H-[1,2,3]triazol-4-ylmethyl]-amide]",> 7.00
11,"COCc1nc(C)c(CNC(=O)c2cc(NC(=O)c3cc(F)c(F)cc3Cl)[nH]n2)o1 [Example 1-45, 5-(2-chloro-4,5-difluoro-benzoylamino)-1H-pyrazole-3-carboxylic acid (2-methoxymethyl-4-methyl-oxazol-5-ylmethyl)-amide]",> 7.00
12,"Cc1nc(-c2ccc(C(F)(F)F)cc2)sc1CNC(=O)c1cc(NC(=O)c2cc(F)c(F)cc2Cl)[nH]n1 [Example 1-6, 5-(2-chloro-4,5-difluoro-benzoylamino)-1H-pyrazole-3-carboxylic acid [4-methyl-2-(4-trifluoromethyl-phenyl)-thiazol-5-ylmethyl]-amide]",6.52 to 7.00
13,"Cc1nc(C2CC2)ncc1CNC(=O)c1cc(NC(=O)c2cc(F)c(F)cc2Cl)[nH]n1 [Example 1-80, 5-(2-chloro-4,5-difluoro-benzoylamino)-1H-pyrazole-3-carboxylic acid (2-cyclopropyl-4-methyl-pyrimidin-5-ylmethyl)-amide]",> 7.00

# The next lines start with the values.
row,pIC50,SMILES
1,> 7.00,"Cc1nc(C(=O)O)oc1CNC(=O)c1cc(NC(=O)c2cc(F)c(F)cc2Cl)[nH]n1 [Example 3-14, sodium 5-({[5-(2-chloro-4,5-difluoro-benzoylamino)-1H-pyrazole-3-carbonyl]-amino}-methyl)-4-methyl-oxazole-2-carboxylate]"
2,> 7.00,"O=C(NCc1nnc(-c2cccc(F)c2)o1)c1cc(NC(=O)c2cc(F)c(F)cc2Cl)[nH]n1 [Example 1-72, 5-(2-chloro-4,5-difluoro-benzoylamino)-1H-pyrazole-3-carboxylic acid [5-(3-fluoro-phenyl)-[1,3,4]oxadiazol-2-ylmethyl]-amide]"
3,> 7.00,"O=C(NCc1nnc(-c2ccccc2O)o1)c1cc(NC(=O)c2cc(F)c(F)cc2Cl)[nH]n1 [Example 1-58, 5-(2-chloro-4,5-difluoro-benzoylamino)-1H-pyrazole-3-carboxylic acid [5-(2-hydroxy-phenyl)-[1,3,4]oxadiazol-2-ylmethyl]-amide]"
4,< 6.52,"O=C(NCc1nnc(-c2ccc(C(F)(F)F)cc2)o1)c1cc(NC(=O)c2cc(F)c(F)cc2Cl)[nH]n1 [Example 1-55, 5-(2-chloro-4,5-difluoro-benzoylamino)-1H-pyrazole-3-carboxylic acid [5-(4-trifluoromethyl-phenyl)-[1,3,4]oxadiazol-2-ylmethyl]-amide]"
5,6.52 to 7.00,CCOC(=O)Cc1nnc(CNC(=O)c2cc(NC(=O)c3cc(F)c(F)cc3Cl)[nH]n2)o1 [Example 1-62]
6,> 7.00,"Cc1nc(C(=O)OCc2ccccc2)oc1CNC(=O)c1cc(NC(=O)c2cc(F)c(F)cc2Cl)[nH]n1 [Example 3-17, 5-(2-chloro-4,5-difluoro-benzoylamino)-1H-pyrazole-3-carboxylic acid (2-benzyloxycarbonyl-4-methyl-oxazol-5-ylmethyl)-amide]"
7,> 7.00,"COc1ccc(-c2nnsc2CNC(=O)c2cc(NC(=O)c3cc(F)c(F)cc3Cl)[nH]n2)cc1 [Example 1-69, 5-(2-chloro-4,5-difluoro-benzoylamino)-1H-pyrazole-3-carboxylic acid [4-(4-methoxy-phenyl)-[1,2,3]thiadiazol-5-ylmethyl]-amide]"
8,> 7.00,"Cn1cccc1-c1nnc(CNC(=O)c2cc(NC(=O)c3cc(F)c(F)cc3Cl)[nH]n2)o1 [Example 1-75, 5-(2-chloro-4,5-difluoro-benzoylamino)-1H-pyrazole-3-carboxylic acid [5-(1-methyl-1H-pyrrol-2-yl)-[1,3,4]oxadiazol-2-ylmethyl]-amide]"
9,> 7.00,"Cc1ccc(-c2nc(C)oc2CNC(=O)c2cc(NC(=O)c3cc(F)c(F)cc3Cl)[nH]n2)cc1 [Example 1-29, 5-(2-chloro-4,5-difluoro-benzoylamino)-1H-pyrazole-3-carboxylic acid [4-(4-methyl-phenyl)-2-methyl-oxazol-5-ylmethyl]-amide]"
10,> 7.00,O=C(NCc1nnc(-c2cccc(Cl)c2)s1)c1cc(NC(=O)c2cc(F)c(F)cc2Cl)[nH]n1 [Example 1-85]
